# Assay results published in ChEMBL document CHEMBL5226381, “Iterative Methylation Leads to 3-Methylchuangxinmycin Production in Actinoplanes tsinanensis CPCC 200056” (2023).
# How the values were obtained:
# Type in all cases: functional
# Settings in all cases: time 7-10 day
# [1] = system: Mycobacterium tuberculosis; assay: Antitubercular activity against INH/RIF-resistant Mycobacterium tuberculosis clinical isolate M7 assessed as inhibition of bacterial growth incubated for 7 to 10 days by Alamar Blue staining based analysis
# [2] = system: Mycobacterium tuberculosis; assay: Antitubercular activity against INH/RIF-resistant Mycobacterium tuberculosis clinical isolate M6 assessed as inhibition of bacterial growth incubated for 7 to 10 days by Alamar Blue staining based analysis
# [3] = system: Mycobacterium tuberculosis; assay: Antitubercular activity against INH/RIF-resistant Mycobacterium tuberculosis clinical isolate M15 assessed as inhibition of bacterial growth incubated for 7 to 10 days by Alamar Blue staining based analysis
# [4] = system: Mycobacterium tuberculosis; assay: Antitubercular activity against INH/RIF-resistant Mycobacterium tuberculosis clinical isolate M34 assessed as inhibition of bacterial growth incubated for 7 to 10 days by Alamar Blue staining based analysis
Compound,MIC [1],MIC [2],MIC [3],MIC [4]
O=C(O)[C@H]1Cc2c[nH]c3cccc(c23)S1,0.78 µg/mL,0.78 µg/mL,0.78 µg/mL,0.78 µg/mL
CC1(C)c2c[nH]c3cccc(c23)S[C@H]1C(=O)O,25 µg/mL,12.5 µg/mL,12.5 µg/mL,25 µg/mL
C[C@H]1c2c[nH]c3cccc(c23)S[C@H]1C(=O)O [CHUANGXINMYCIN],0.78 µg/mL,0.78 µg/mL,1.56 µg/mL,3.12 µg/mL
NNC(=O)c1ccncc1 [ISONIAZID],8 µg/mL,8 µg/mL,4 µg/mL,8 µg/mL
CO[C@H]1/C=C/O[C@@]2(C)Oc3c(C)c(O)c4c(O)c(c(/C=N/N5CCN(C)CC5)c(O)c4c3C2=O)NC(=O)/C(C)=C\C=C\[C@H](C)[C@H](O)[C@@H](C)[C@@H](O)[C@@H](C)[C@H](OC(C)=O)[C@@H]1C [RIFAMPIN],8 µg/mL,16 µg/mL,> 64 µg/mL,16 µg/mL
